Consider 25 molecules from patent publication US9630958B2, “Triazine compounds” (Sphaera Pharma Pte. Ltd., priority 2012, dated 2017).

Assay [1] addresses T1, PI3 Kinase alpha (p110 alpha/p85 alpha) (Homo sapiens, UniProt P42336).
T1 construct: purchased Invitrogen
As to the kind of experiment: PI3K TR-FRET assay (Transcreener ADP2). Format: biochemical. Particulars: for IC50: PI3K alpha, 1 μM ATP, 50 μM PIP2; for inhibition at 1 µM: 1 uM compound, read-out: PI3K % Inhib@1 uM. The essentials:
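p110α/p85α with diC8 PIP2 (50 μM) and 1 μM ATP in 50 mM HEPES pH 7.4, MgCl2, CHAPS, DTT, EGTA; 1 h at room temperature. ADP detected by Transcreener ADP2 TR-FRET (665/615 nm ratio), converted to product via ADP-ATP standard curve; IC50 from four-parameter fit of % inhibition.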

Another assay addresses T2, Recombinant mTOR (FRAP1) (Homo sapiens, UniProt P42345).
T2 construct: purchased Invitrogen
As to the kind of experiment: mTOR in vitro kinase assay (TR-FRET, phosphorylation of GFP-4E-BP1). Format: biochemical. Conditions: for inhibition at 1 µM: 1 uM compound, read-out: mTOR % Inhib@1 uM; for IC50: 8 μM ATP, 400 nM GFP-4E-BP1. The essentials: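 Recombinant human mTOR with GFP-4E-BP1 substrate at 400 nM and 8 μM ATP, 1 h at room temperature, then quenched with 10 mM EDTA plus 2 nM Tb-anti-p4E-BP1 (pThr46) for 1 h. TR-FRET 520/486 nm ratio fitted against inhibitor concentration by four-parameter sigmoidal regression.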

A value given as a limit tells only on which side of the number the result lay.

T2 sequence (P42345 1360-2549 limits assumed): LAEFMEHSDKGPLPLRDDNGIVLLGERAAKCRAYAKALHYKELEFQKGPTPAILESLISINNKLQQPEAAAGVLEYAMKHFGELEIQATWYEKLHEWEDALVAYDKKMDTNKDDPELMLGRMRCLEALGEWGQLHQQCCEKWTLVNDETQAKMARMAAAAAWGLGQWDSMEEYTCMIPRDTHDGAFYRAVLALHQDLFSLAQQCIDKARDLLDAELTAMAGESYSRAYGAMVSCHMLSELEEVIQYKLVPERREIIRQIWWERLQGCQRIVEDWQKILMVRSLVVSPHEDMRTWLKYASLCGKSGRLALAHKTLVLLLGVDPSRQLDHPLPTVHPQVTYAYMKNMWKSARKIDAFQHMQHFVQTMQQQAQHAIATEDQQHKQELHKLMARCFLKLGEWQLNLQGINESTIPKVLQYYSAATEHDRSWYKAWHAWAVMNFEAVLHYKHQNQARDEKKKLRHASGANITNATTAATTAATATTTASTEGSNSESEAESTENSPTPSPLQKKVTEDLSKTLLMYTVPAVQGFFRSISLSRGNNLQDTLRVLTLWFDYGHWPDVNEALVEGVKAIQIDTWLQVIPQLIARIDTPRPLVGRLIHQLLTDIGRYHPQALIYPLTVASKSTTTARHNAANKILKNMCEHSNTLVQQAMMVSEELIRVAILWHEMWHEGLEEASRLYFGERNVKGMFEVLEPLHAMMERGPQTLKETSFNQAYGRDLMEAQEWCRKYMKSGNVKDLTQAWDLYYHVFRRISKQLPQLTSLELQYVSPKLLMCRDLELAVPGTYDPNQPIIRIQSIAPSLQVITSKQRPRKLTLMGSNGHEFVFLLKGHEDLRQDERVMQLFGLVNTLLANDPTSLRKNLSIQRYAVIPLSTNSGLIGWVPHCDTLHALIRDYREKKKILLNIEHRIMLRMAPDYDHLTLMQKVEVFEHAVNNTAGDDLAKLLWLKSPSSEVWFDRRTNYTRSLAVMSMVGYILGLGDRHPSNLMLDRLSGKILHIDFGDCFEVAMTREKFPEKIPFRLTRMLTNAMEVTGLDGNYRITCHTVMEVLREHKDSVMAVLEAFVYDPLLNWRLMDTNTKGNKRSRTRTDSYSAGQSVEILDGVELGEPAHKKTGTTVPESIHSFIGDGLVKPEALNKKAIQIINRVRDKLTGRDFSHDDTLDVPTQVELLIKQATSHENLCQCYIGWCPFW
T1 sequence (P42336 whole entry): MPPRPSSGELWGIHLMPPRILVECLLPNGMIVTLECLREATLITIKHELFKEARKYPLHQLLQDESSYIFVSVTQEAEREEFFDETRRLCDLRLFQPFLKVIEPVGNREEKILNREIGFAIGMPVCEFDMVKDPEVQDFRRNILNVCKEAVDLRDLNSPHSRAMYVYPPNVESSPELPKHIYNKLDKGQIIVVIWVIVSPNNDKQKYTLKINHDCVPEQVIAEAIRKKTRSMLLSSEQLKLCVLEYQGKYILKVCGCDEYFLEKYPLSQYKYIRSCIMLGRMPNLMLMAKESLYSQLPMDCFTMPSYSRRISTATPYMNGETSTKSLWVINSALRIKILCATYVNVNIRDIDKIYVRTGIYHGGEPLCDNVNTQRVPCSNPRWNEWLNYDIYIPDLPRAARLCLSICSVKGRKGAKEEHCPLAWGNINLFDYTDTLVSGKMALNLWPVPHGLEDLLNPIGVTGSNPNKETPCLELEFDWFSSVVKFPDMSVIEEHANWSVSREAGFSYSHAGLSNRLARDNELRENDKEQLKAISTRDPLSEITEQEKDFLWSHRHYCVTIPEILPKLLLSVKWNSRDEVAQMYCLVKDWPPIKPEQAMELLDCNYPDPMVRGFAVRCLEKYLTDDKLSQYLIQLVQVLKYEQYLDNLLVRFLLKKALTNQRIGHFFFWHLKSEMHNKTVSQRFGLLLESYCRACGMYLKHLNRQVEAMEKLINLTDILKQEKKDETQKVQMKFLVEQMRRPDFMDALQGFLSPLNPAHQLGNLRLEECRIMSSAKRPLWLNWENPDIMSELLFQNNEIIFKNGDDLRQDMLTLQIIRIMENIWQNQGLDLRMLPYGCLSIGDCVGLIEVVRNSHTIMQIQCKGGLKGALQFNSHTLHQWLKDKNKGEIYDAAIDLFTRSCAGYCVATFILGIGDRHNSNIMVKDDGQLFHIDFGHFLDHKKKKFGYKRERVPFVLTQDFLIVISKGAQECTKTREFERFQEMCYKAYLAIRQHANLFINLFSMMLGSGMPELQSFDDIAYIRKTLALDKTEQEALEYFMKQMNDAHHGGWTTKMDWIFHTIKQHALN
T1 sequence (P27986 whole entry partner): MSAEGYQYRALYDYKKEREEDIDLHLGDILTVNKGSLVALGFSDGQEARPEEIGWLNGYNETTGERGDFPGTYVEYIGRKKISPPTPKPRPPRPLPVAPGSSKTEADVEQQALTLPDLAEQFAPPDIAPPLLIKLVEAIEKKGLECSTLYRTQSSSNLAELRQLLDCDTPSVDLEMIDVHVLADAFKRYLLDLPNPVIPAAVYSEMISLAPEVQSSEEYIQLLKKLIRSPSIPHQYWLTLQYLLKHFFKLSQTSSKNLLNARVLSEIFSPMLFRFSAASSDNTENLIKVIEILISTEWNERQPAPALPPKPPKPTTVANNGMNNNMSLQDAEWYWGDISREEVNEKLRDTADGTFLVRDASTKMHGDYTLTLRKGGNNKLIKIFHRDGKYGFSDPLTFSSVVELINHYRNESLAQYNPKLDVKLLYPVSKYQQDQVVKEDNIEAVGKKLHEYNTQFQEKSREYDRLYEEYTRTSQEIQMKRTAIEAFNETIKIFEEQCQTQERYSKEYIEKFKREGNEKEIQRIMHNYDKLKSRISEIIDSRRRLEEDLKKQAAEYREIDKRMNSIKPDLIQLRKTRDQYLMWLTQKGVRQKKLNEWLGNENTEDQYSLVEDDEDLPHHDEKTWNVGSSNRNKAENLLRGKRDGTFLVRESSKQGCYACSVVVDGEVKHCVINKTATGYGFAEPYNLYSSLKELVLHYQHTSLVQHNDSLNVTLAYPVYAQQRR

In assay [1], `CN(C)C(=O)c1ccc(Oc2nc(-c3cnc(N)s3)nc(N3CCSCC3)n2)cc1` [Compound 10118, 4-(4-(2-aminothiazol-5-yl)-6-thiomorpholino-1,3,5-triazin-2-yloxy)-N,N-dimethylbenzamide] registered an IC50 above 1000 nM. In addition, on Recombinant mTOR (FRAP1), the inhibition at 1 µM is above 50% and the IC50 was above 3000 nM.
The molecule `CS(=O)(=O)N1CCC(COc2nc(-c3ccc(N)nc3)nc(N3CCOCC3)n2)CC1` [Compound 10185, 5-(4-((1-(methylsulfonyl)piperidin-4-yl)methoxy)-6-morpholino-1,3,5-triazin-2-yl)pyridin-2-amine] registered an IC50 in assay [1] below 1000 nM. Also, the inhibition at 1 µM at Recombinant mTOR (FRAP1) is below 50%.
On to `C[C@H]1COCCN1c1nc(Oc2ccc(C(=O)N(C)C)cc2)nc(-c2cnc(N(C)C)s2)n1` [Compound 10143, 4-(4-(2-(dimethylamino)thiazol-5-yl)-6-((S)-3-methylmorpholino)-1,3,5-triazin-2-yloxy)-N,N-dimethylbenzamide], for which the inhibition at 1 µM in assay [1] was below 50%. The IC50 (in assay [1]; on Recombinant mTOR (FRAP1)) was above 1000 nM throughout.
For `CS(=O)(=O)N1CCC(COc2nc(-c3cnc(N)s3)nc(N3CCOCC3)n2)C1` (centres unmarked) [Compound 10197, 5-(4-((1-(methylsulfonyl)pyrrolidin-3-yl)methoxy)-6-morpholino-1,3,5-triazin-2-yl)thiazol-2-amine], the IC50 in assay [1] is below 1000 nM. The inhibition at 1 µM on Recombinant mTOR (FRAP1) is below 50%.
As for `CNc1ncc(-c2nc(Oc3ccc(C(=O)N(C)C)cc3)nc(N3CCOCC3)n2)s1` [Compound 10007, N,N-dimethyl-4-(4-(2-(methylamino)thiazol-5-yl)-6-morpholino-1,3,5-triazin-2-yloxy)benzamide], the IC50 in assay [1] is above 1000 nM. Further, on Recombinant mTOR (FRAP1), the inhibition at 1 µM is above 50% and the half-maximal inhibitory concentration (IC50) is below 1000 nM.
Consider `CN(C)C(=O)c1cccc(Oc2nc(-c3cnc(N)s3)nc(N3CCOCC3)n2)c1` [Compound 10195, 3-((4-(2-aminothiazol-5-yl)-6-morpholino-1,3,5-triazin-2-yl)oxy)-N,N-dimethylbenzamide], for which, in assay [1], the IC50 is below 1000 nM. Further, on Recombinant mTOR (FRAP1), the inhibition at 1 µM was below 50%.
For the molecule `C[C@H]1CN(c2nc(Oc3ccc(C(=O)N(C)C)cc3F)nc(-c3cnc4[nH]ccc4c3)n2)[C@@H](C)CO1` [Compound 10104, 4-((4-((2S,5S)-2,5-dimethylmorpholino)-6-(1H-pyrrolo[2,3-b]pyridine-5-yl)-1,3,5-triazin-2-yl)oxy)-3-fluoro-N,N-dimethylbenzamide], the IC50 (in assay [1]; at Recombinant mTOR (FRAP1)) was below 1000 nM each time.
As for `C[C@@H]1CO[C@@H](C)CN1c1nc(Oc2ccc(C(=O)N(C)C)cc2F)nc(-c2ccc3[nH]ncc3c2)n1` [Compound 10161, 4-(4-(1H-indazol-5-yl)-6-((2S,5R)-2,5-dimethylmorpholino)-1,3,5-triazin-2-yloxy)-3-fluoro-N,N-dimethylbenzamide], the IC50 in assay [1] was above 10000 nM; on Recombinant mTOR (FRAP1), below 1000 nM.
Turning to `CS(=O)(=O)N1CCC(COc2nc(-c3cnc(N)s3)nc(N3CCOCC3)n2)CC1` [Compound 10194, 5-(4-((1-(methylsulfonyl)piperidin-4-yl)methoxy)-6-morpholino-1,3,5-triazin-2-yl)thiazol-2-amine], the IC50 in assay [1] was below 1000 nM. In addition, on Recombinant mTOR (FRAP1), the inhibition at 1 µM is below 50%.
With `CC[C@H]1COCCN1c1nc(Oc2ccc(C(=O)N(C)C)cc2)nc(-c2cnc(N)s2)n1` [Compound 10081, (S)-4-((4-(2-Aminothiazol-5-yl)-6-(3-ethylmorpholino)-1,3,5-triazin-2-yl)oxy)-N,N-dimethylbenzamide], in assay [1], the inhibition at 1 µM is above 50% and the IC50 was below 1000 nM. Besides, on Recombinant mTOR (FRAP1), the inhibition at 1 µM was above 50% and the 50% inhibitory concentration (IC50) was below 1000 nM.
`C[C@@H]1CN(c2nc(Oc3ccc(C(=O)N(C)C)cc3)nc(-c3cnc(N)s3)n2)CCO1` [Compound 10073, (R)-4-((4-(2-Aminothiazol-5-yl)-6-(2-methylmorpholino)-1,3,5-triazin-2-yl)oxy)-N,N-dimethylbenzamide]: the inhibition at 1 µM (in assay [1]; at Recombinant mTOR (FRAP1)) was above 50% in each case. Also, the IC50 (in assay [1]; on Recombinant mTOR (FRAP1)) was below 1000 nM each time.
Regarding `CC1OCCN(c2nc(Oc3ccc(C(=O)N(C)C)cc3F)nc(-c3cnc(N)s3)n2)C1C` (centres unmarked) [Compound 10159, 4-(4-(2-aminothiazol-5-yl)-6-(2,3-dimethylmorpholino)-1,3,5-triazin-2-yloxy)-3-fluoro-N,N-dimethylbenzamide], the IC50 (in assay [1]; on Recombinant mTOR (FRAP1)) was below 1000 nM throughout.
Take `CN(C)C(=O)c1ccc(Oc2nc(-c3cnc(N)s3)nc(N3CCOCC3(C)C)n2)cc1` [Compound 10128, 4-(4-(2-aminothiazol-5-yl)-6-(3,3-dimethylmorpholino)-1,3,5-triazin-2-yloxy)-N,N-dimethylbenzamide]: in assay [1], the inhibition at 1 µM is above 50% and the IC50 was below 1000 nM. Also, on Recombinant mTOR (FRAP1), the inhibition at 1 µM is above 50% and the 50% inhibitory concentration (IC50) is below 1000 nM.
As for `C[C@H]1COCCN1c1nc(Oc2ccc(C(=O)N(C)C)cc2F)nc(-c2cnc(N)s2)n1` [Compound 10010, (S)-4-(4-(2-aminothiazol-5-yl)-6-(3-methylmorpholino)-1,3,5-triazin-2-yloxy)-3-fluoro-N,N-dimethylbenzamide], in assay [1], the inhibition at 1 µM is above 50% and the 50% inhibitory concentration (IC50) is below 1000 nM. In addition, at Recombinant mTOR (FRAP1), the inhibition at 1 µM is above 50% and the IC50 was below 1000 nM.
With `C[C@H]1COC[C@H](C)N1c1nc(Oc2ccc(C(=O)N(C)C)cc2)nc(-c2cnc(N)s2)n1` [Compound 10078, 4-((4-(2-Aminothiazol-5-yl)-6-((3S,5S)-3,5-dimethylmorpholino)-1,3,5-triazin-2-yl)oxy)-N,N-dimethybenzamide], in assay [1], the inhibition at 1 µM was above 50% and the IC50 is below 1000 nM. At Recombinant mTOR (FRAP1), the inhibition at 1 µM was above 50% and the IC50 is below 1000 nM.
Take `Cc1nc(N)sc1-c1nc(Oc2ccc(C(=O)N(C)C)cc2)nc(N2CCOCC2)n1` [Compound 10199, 4-((4-(2-amino-4-methylthiazol-5-yl)-6-morpholino-1,3,5-triazin-2-yl)oxy)-N,N-dimethylbenzamide]: in assay [1], the IC50 is below 1000 nM. For the same molecule, the inhibition at 1 µM on Recombinant mTOR (FRAP1) was below 50%.
For `CN(C)C(=O)c1ccc(Oc2nc(-c3cnc(N)s3)nc(N3CCOCC3)n2)cc1` [Compound 10017, 4-(4-(2-aminothiazol-5-yl)-6-morpholino-1,3,5-triazin-2-yloxy)-N,N-dimethylbenzamide], the IC50 (in assay [1]; at Recombinant mTOR (FRAP1)) was below 1000 nM in each case.
Take `C[C@H]1COCCN1c1nc(Oc2ccc(C(=O)N(C)C)cc2)nc(C2=CC=C(N)N(O)C2)n1` [Compound 10125]: the inhibition at 1 µM (in assay [1]; at Recombinant mTOR (FRAP1)) was below 50% each time.
As for `C[C@H]1COCCN1c1nc(O[C@H]2CC[C@H](C(=O)N(C)C)CC2)nc(-c2ccc3[nH]ncc3c2)n1` [Compound 10202, (1S,4r)-4-((4-(1H-indazol-5-yl)-6-((S)-3-methylmorpholino)-1,3,5-triazin-2-yl)oxy)-N,N-dimethylcyclohexane-1-carboxamide], the IC50 in assay [1] was above 10000 nM; at Recombinant mTOR (FRAP1) it was above 1000 nM.
With `C[C@H]1COCCN1c1nc(Oc2ccc(C(=O)N(C)C)cc2)nc(-c2cnc(NC(=O)Nc3cccnc3)s2)n1` [Compound 10092], the inhibition at 1 µM in assay [1] was below 50%. In addition, the IC50 (in assay [1]; on Recombinant mTOR (FRAP1)) was below 1000 nM throughout.
Regarding `C[C@@H]1CN(c2nc(Oc3ccc(C(=O)N(C)C)cc3F)nc(-c3ccc4[nH]ncc4c3)n2)[C@H](C)CO1` [Compound 10162, 4-(4-(1H-indazol-5-yl)-6-((2R,5R)-2,5-dimethylmorpholino)-1,3,5-triazin-2-yloxy)-3-fluoro-N,N-dimethylbenzamide], the IC50 was above 10000 nM in assay [1] and above 1000 nM on Recombinant mTOR (FRAP1).
For the molecule `CN(C)C(=O)c1ccc(Oc2nc(-c3ccc4[nH]ncc4c3)nc(N3C4CCC3COC4)n2)c(F)c1` [Compound 10136, 4-(4-(3-oxa-8-aza-bicyclo[3.2.1]octan-8-yl)-6-(1H-indazol-5-yl)-1,3,5-triazin-2-yloxy)-3-fluoro-N,N-dimethylbenzamide], in assay [1], the inhibition at 1 µM is below 50% and the IC50 was above 10000 nM. In addition, on Recombinant mTOR (FRAP1), the inhibition at 1 µM was above 50% and the IC50 is below 1000 nM.
With `C[C@@H]1CN(c2nc(Oc3ccc(C(=O)N(C)C)cc3F)nc(-c3ccc(N)nc3)n2)[C@@H](C)CO1` [Compound 10098, 4-((4-(6-Aminopyridin-3-yl)-6-((2R,5S)-2,5-dimethylmorpholino)-1,3,5-triazin-2-yl)oxy)-3-fluoro-N,N-dimethylbenzamide], in assay [1], the inhibition at 1 µM was above 50% and the IC50 is below 1000 nM. Moreover, the IC50 at Recombinant mTOR (FRAP1) was below 1000 nM.
`C[C@@H]1COCCN1c1nc(Oc2ccc(C(=O)N(C)C)cc2)nc(-c2cnc(N)s2)n1` [Compound 10004, (R)-4-(4-(2-aminothiazol-5-yl)-6-(3-methylmorpholino)-1,3,5-triazin-2-yloxy)-N,N-dimethylbenzamide]: the IC50 in assay [1] was above 1000 nM. Moreover, on Recombinant mTOR (FRAP1), the inhibition at 1 µM is below 50% and the IC50 is below 1000 nM.
In turn, `CNC(=O)c1ccc(Oc2nc(-c3cnc(N)s3)nc(N3CCOCC3)n2)cc1` [Compound 10193, 4-((4-(2-aminothiazol-5-yl)-6-morpholino-1,3,5-triazin-2-yl)oxy)-N-methylbenzamide] gave an IC50 in assay [1] below 1000 nM. Further, the inhibition at 1 µM at Recombinant mTOR (FRAP1) was below 50%.
